For 47 compounds, Kd results are on record in patent publication US20250333409A1, “Compound and use thereof in preparation of BCL-XL inhibitor” (Hitgen Inc., priority 2022, published 2025).

Molecules are shown by their SMILES.

Chain of BCL-XL (Q07817 whole entry): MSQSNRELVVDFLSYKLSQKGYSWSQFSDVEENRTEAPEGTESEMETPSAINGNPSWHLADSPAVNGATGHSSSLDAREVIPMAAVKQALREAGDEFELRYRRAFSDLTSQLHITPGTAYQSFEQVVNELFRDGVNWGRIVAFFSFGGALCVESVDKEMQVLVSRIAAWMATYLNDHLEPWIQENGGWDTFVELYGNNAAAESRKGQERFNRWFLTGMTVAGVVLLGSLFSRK

This assay concerns the target BCL-XL (Homo sapiens (Human), UniProt Q07817). Kind of assay: BCL-XL surface plasmon resonance (SPR) binding experiment. The settings on record: 25° C., steady state affinity model (1:1 binding), BCL-XL fixed on NTA chip. Here is the method: Experimental Example 1. BCL-XL Surface Plasmon Resonance (SPR) Binding Experiment
Preparation of running buffer: The compositions of protein fixation buffer and running buffer A were the same, in which the concentration of NaH2PO4 was 10 mM, the concentration of Na2HPO4 was 40 mM, the concentration of NaCl was 150 mM, the content of Tween 20 was 0.03%, and the pH was adjusted to 7.4; in running buffer B, the concentration of NaH2OP4 was 10 mM, the concentration of Na2HOP4 was 40 mM, the concentration of NaCl was 150 mM, the content of Tween 20 was 0.03%, the content of DMSO was […], and the pH was adjusted to 7.4. After the running buffers were prepared, they were filtered with 0.22 μm filter membrane.
BCL-XL protein fixation: The protein fixation buffer was used to fix BCL-XL on NTA chip through His capture and amino coupling. The NTA chip surface was washed with 50 mM NaOH and 350 mM EDTA at a flow rate of 60.0 μL/min for 60 seconds, respectively; then activated with 10 mM NiCl2 for 1100 seconds, and then activated with a mixture of EDC (75.00 mg/mL) and NHS (11.50 mg/mL) with a volume ratio of 1:1 for 650 seconds at an activation flow rate of 10.0 μL/min; then BCL-XL (0.04 mg/mL) was injected at 4.0 μL/min for 850 seconds. After the BCL-XL injection was completed, a mixture of EDC (75.00 mg/mL) and NHS (11.50 mg/mL) with a volume ratio of 1:1 was used for cross-linking at a rate of 10.0 μL/min for 200 seconds, and finally 1 M ethanolamine (pH 8.5) was injected at a rate of 6.0 μL/min for 7 minutes to block the chip surface.
Compound dilution: The test compound was diluted with 100% DMSO to 100 times the required final concentration, after mixing well, 4.0 μL was pipetted and added to 396 μL of the running buffer A, centrifuged at 15000 rpm for 5 minutes, to obtain a 1× compound solution containing 1% DMSO for subsequent dilution. The compound to be tested was diluted gradiently by 2-fold dilution from 50 μM to 9 concentrations (the 2-fold dilution was carried out by adding 200 μL of the compound solution to 200 μL of the running buffer B, 10 concentration gradients comprised one 0 concentration (using the running buffer B instead), and the starting concentration was 50 μM). The diluted compound was transferred to a 96-well plate for sample injection.
After 8 injections of the running buffer B to complete equilibrium, the compound was injected from the lowest concentration to the highest concentration, and the association time and dissociation time were both 120 seconds. After each injection, the injection needle was washed with 50% DMSO. The solvent difference caused by DMSO was corrected with 0.50%, 0.75%, 1.00%, 1.25% and 1.50% DMSO.
The response value of the compound to bind to BCL-XL protein was analyzed after deducting the reference channel and 0 concentration, and the affinity Kd was fitted by Biacore T200 Evaluation Software using the steady state affinity model (1:1 binding model).
In general terms: SPR reads the build-up and loss of mass on a sensor chip optically.
By Kd is commonly meant the free concentration of one partner at which half of the binding sites on the other are occupied at equilibrium, for simple one-to-one binding. Lower therefore signals a tighter complex. For the compound `CNc1nc(-c2cnc3ccccc3c2)nc2c1CCN(C(=O)c1ccc(COc3ccc(C#CCN(C)C)cc3C)cc1)C2` [Compound D2], the dissociation constant (Kd) fell in the range of 0.1 to 1 µM.

In turn, `CCNC(=O)c1ccc(-c2nc3c(c(NC)n2)CCN(C(=O)c2ccc(COc4ccccc4)cc2)C3)cn1` [Compound A4] displayed a Kd of 1 to 10 µM. In turn, `CC(=O)NCCc1ccc(OCc2ccc(C(=O)N3CCc4cnc(-c5cnc6ccccc6c5)nc4C3)cc2)cc1` [Compound C3] returned a Kd of 0.1 to 1 µM. Consider `O=C(c1ccc(COc2ccccc2)cc1)N1CCc2nc(Nc3nc4ccccc4s3)ccc2C1` [Compound C14], for which the Kd is 10 to 100 µM. The figure for `CN1CCN(CC#Cc2ccc(OCc3ccc(C(=O)N4CCc5cnc(-c6cnc7ccccc7c6)nc5C4)cc3)cn2)CC1` [Compound C7] is < 0.1 µM; for `CNc1nc(-c2cnc3ccccc3c2)nc2c1CCN(C(=O)c1cc(-c3ccc(C4CCNCC4)cc3)[nH]n1)C2` [Compound 1B] it is 1 to 10 µM.

As to `CN(C)c1nc(-c2cnc3ccccc3c2)nc2c1CCN(C(=O)c1ccc(COc3ccccc3)cc1)C2` [Compound A2], the dissociation constant (Kd) is 0.1 to 1 µM. The compound `CNc1nc(-c2cc(C)[nH]n2)nc2c1CCN(C(=O)c1ccc(COc3ccccc3)cc1)C2` [Compound A9] showed a dissociation constant Kd of 10 to 100 µM. In the case of `CNc1nc(-c2cccc(NS(C)(=O)=O)c2)nc2c1CN(Cc1ccc(Cl)cn1)C2` [Compound E9] it was 10 to 100 µM; in that of `CNc1nc(-c2cnc3ccccc3c2)nc2c1CCN(C(=O)c1ccc(/C=C/c3ccc(C#CCN4CCN(C)CC4)cc3)cc1)C2` [Compound D6], < 0.1 µM. The figure for `O=C(c1ccc(COc2ccccc2)cc1)N1CCc2c(O)nc(-c3cnc4ccccc4c3)nc2C1` [Compound B2] is 0.1 to 1 µM; for `CNc1nc(-c2cnc3ccccc3c2)nc2c1CN(c1nc(C(=O)O)cs1)CC2` [Compound A21] it is 10 to 100 µM; for `CNc1nc(-c2ccc(F)c(C(=O)N(C)C)c2)nc2c1CN(Cc1ccc(Cl)cn1)C2` [Compound E6] it is 10 to 100 µM. On to `CN1CCN(CC#Cc2ccc(OCc3ccc(C(=O)N4CCc5cnc(-c6cnc7ccccc7c6)nc5C4)cn3)cc2)CC1` [Compound C5], for which the equilibrium dissociation constant (Kd) was < 0.1 µM.

Compound `CNc1nc(-c2cccc(NC(=O)C(C)C)c2)nc2c1CN(Cc1ccc(Cl)cn1)C2` [Compound E8] gave a dissociation constant Kd of 10 to 100 µM. The figure for `CNC(=O)CCCc1ccc(-c2cc(C(=O)N3CCc4cnc(-c5cnc6ccccc6c5)nc4C3)n[nH]2)cc1` [Compound C10] is 0.1 to 1 µM; for `CNc1nc(-c2cnc3ccccc3c2)nc2c1CN(c1nc(C(=O)O)cs1)C2` [Compound E1] it is 10 to 100 µM. Compound `CNc1nc(-c2cnc3ccccc3c2)nc2c1CCN(C(=O)c1cc(-c3ccc(C4CCN(C)CC4)cc3)[nH]n1)C2` [Compound 3B] returned a dissociation constant Kd of 10 to 100 µM. The figure for `CCc1ccc(-c2cc(C(=O)N3CCc4c(nc(-c5cnc6ccccc6c5)nc4NC)C3)[nH]n2)cc1` [Compound 7A] is 10 to 100 µM; for `CNc1nc(-c2cnc3ccccc3c2)nc2c1CCN(C(=O)c1cc(-c3ccc(C(C)(C)CNC(=O)OC(C)(C)C)cc3)n[nH]1)C2` [Compound 1A] it is 0.1 to 1 µM; for `CNc1nc(-c2cnc3ccccc3c2)nc2c1CCN(C(=O)c1ccc(C(=O)O)cc1)C2` [Compound A15] it is 10 to 100 µM. In the case of `CNC(=O)C(C)(C)c1ccc(-c2cc(C(=O)N3CCc4c(nc(-c5cnc6ccccc6c5)nc4NC)C3)[nH]n2)cc1` [Compound 4A] it was 0.1 to 1 µM; in that of `CNc1nc(-c2cnc3ccccc3c2)nc2c1CCN(C(=O)c1ccc(COc3ccc(C#CCN4CCN(C)CC4)cc3C)cc1)C2` [Compound D5], 0.1 to 1 µM. In the case of `C[C@@H](CNc1nc(-c2cnc3ccccc3c2)nc2c1CCN(C(=O)c1ccc(COc3ccccc3)cc1)C2)c1ccccc1` [Compound A3] it was 1 to 10 µM; in that of `CS(=O)(=O)Nc1ncc2c(n1)CCN(C(=O)c1ccc(COc3ccccc3)cc1)C2` [Compound C11], 10 to 100 µM.

In turn, `CNc1nc(-c2cnc3ccccc3c2)nc2c1CCN(C(=O)c1ccc(COc3ccccc3)cc1)C2` [Compound A1] displayed a Kd of 0.1 to 1 µM. Turning to `CNc1nc(-c2cnc3ccccc3c2)nc2c1CCN(C(=O)c1ccc(C(=O)Nc3ccccc3)cc1)C2` [Compound A16], the Kd fell in the range of 10 to 100 µM. In the case of `CNc1nc(-c2cnc3ccccc3c2)nc2c1CCN(C(=O)c1ccc(COc3ccc(C#CCN(C)C)cc3F)cc1)C2` [Compound D3] it was < 0.1 µM; in that of `O=C(c1ccc(COc2ccccc2)cc1)N1CCc2cnc(-c3cnc4ccccc4c3)nc2C1` [Compound C1], 0.1 to 1 µM; in that of `CC(C)(C)c1ccc(-c2cc(C(=O)N3CCc4cnc(-c5cnc6ccccc6c5)nc4C3)[nH]n2)cc1` [Compound 1C], 0.1 to 1 µM. The figure for `CC(C)(C)OC(=O)N1CCN(CC#Cc2ccc(OC(F)(F)c3ccc(C(=O)N4CCc5cnc(-c6cnc7ccccc7c6)nc5C4)cc3)cc2)CC1` [Compound C9] is 10 to 100 µM; for `CNc1nc(-c2cc3ccccc3nc2O)nc2c1CCN(C(=O)c1ccc(COc3ccccc3)cc1)C2` [Compound A5] it is 10 to 100 µM.

Regarding `O=C(c1ccc(COc2ccccc2)cc1)N1CCc2nc(NS(=O)(=O)c3ccccc3)ncc2C1` [Compound C12], the dissociation constant Kd lay within 10 to 100 µM. The figure for `CN1CCN(CC#Cc2ccc(OCc3ccc(C(=O)N4CCc5cnc(-c6cnc7ccccc7c6)nc5C4)cc3)nc2)CC1` [Compound C8] is 10 to 100 µM. `CC(C)(C)c1ccc(-c2cc(C(=O)N3CCc4nc(Nc5nc6ccccc6s5)ccc4C3)[nH]n2)cc1` [Compound 1E] registered a dissociation constant Kd of 10 to 100 µM. As to `CNC(=O)c1ccc(OCc2ccc(C(=O)N3CCc4cnc(-c5cnc6ccccc6c5)nc4C3)cc2)cc1` [Compound C2], the dissociation constant (Kd) was < 0.1 µM. The compound `CNc1nc(-c2cnc3ccccc3c2)nc2c1CCN(C(=O)c1cccc(C(=O)O)c1)C2` [Compound A14] displayed a Kd of 10 to 100 µM. `CNC(=O)c1ccc(-c2cc(C(=O)N3CCc4c(nc(-c5cnc6ccccc6c5)nc4NC)C3)n[nH]2)cc1` [Compound 6A] had a dissociation constant (Kd) of 1 to 10 µM. In the case of `CN1CCC(c2ccc(OCc3ccc(C(=O)N4CCc5cnc(-c6cnc7ccccc7c6)nc5C4)cc3)cc2)CC1` [Compound C4] it was 1 to 10 µM; in that of `O=C(c1ccc(COc2ccccc2)cc1)N1CCc2ccc(-c3cc4cccnc4[nH]3)cc2C1` [Compound F6], 10 to 100 µM; in that of `CNc1nc(-c2cnc3ccccc3c2)nc2c1CCN(C(=O)c1ccc(COc3ccc(C#CCN4CCN(C)CC4)cc3F)cc1)C2` [Compound D4], < 0.1 µM. In the case of `CNc1nc(-c2cnc3ccccc3c2)nc2c1CCN(C(=O)c1cc(-c3ccc(C4CC[N+](C)(C)CC4)cc3)[nH]n1)C2` [Compound 2B] it was 1 to 10 µM; in that of `CNc1nc(-c2ccc(Oc3ccccc3)nc2)nc2c1CCN(C(=O)c1ccc(COc3ccccc3)cc1)C2` [Compound A8], 1 to 10 µM. In the case of `CNc1nc(-c2cnc3ccccc3c2)nc2c1CCN(C(=O)c1ccc(COc3ccc(C#CCN(C)C)cc3)cc1)C2` [Compound D1] it was < 0.1 µM; in that of `COc1nc(-c2cnc3ccccc3c2)nc2c1CCN(C(=O)c1ccc(COc3ccccc3)cc1)C2` [Compound B1], 0.1 to 1 µM; in that of `CNc1nc(-c2cnc3ccccc3c2)nc2c1CCN(C(=O)c1cc(-c3ccc(C(C)(C)CN4CCNCC4)cc3)n[nH]1)C2` [Compound 5A], 0.1 to 1 µM. In turn, `CNc1nc(-c2ccc(C(=O)Nc3ccccc3)cc2)nc2c1CN(Cc1ccc(Cl)cn1)C2` [Compound E7] yielded a Kd of 10 to 100 µM.
